PubChem BioAssay AID256 (DTP/NCI, 2004)
Several values for one entry are separate records, joined by “and”; a condition that tells them apart may be missing. Equal entries are not always repeated. Toxic doses and inconclusive results are not listed. Rule for the calls: active = survival T/C of 150% or more; inactive = T/C below 125% in these data.

Test system: CD2F1 mice, L1210 leukemia ip, survival T/C
Assay: NCI In Vivo Anticancer Drug Screen. Data for tumor model L1210 Leukemia (intraperitoneal) in CD2F1 (CDF1) mice
Details: higher = longer survival
Summary of the method: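 Read-out first: treated-group measurement over vehicle-control measurement, expressed as a ratio. Animals bore a transplanted tumor line and were dosed with compound or vehicle.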

[1] = endpoint: mean survival time, dose: 12.5 mg/kg/injection, schedule: Q01DX005 (ip), vehicle: other
[2] = endpoint: mean survival time, dose: 25.0 mg/kg/injection, schedule: Q01DX005 (ip), vehicle: other
[3] = endpoint: mean survival time, dose: 50.0 mg/kg/injection, schedule: Q01DX005 (ip), vehicle: other
[4] = endpoint: mean survival time, dose: 100.0 mg/kg/injection, schedule: Q01DX001 (ip), vehicle: saline with Tween-80
[5] = endpoint: mean survival time, dose: 200.0 mg/kg/injection, schedule: Q01DX001 (ip), vehicle: saline with Tween-80
[6] = endpoint: mean survival time, dose: 400.0 mg/kg/injection, schedule: Q01DX001 (ip), vehicle: saline with Tween-80
[7] = endpoint: mean survival time, dose: 100.0 mg/kg/injection, schedule: Q04DX003 (ip), vehicle: saline with Tween-80
[8] = endpoint: mean survival time, dose: 400.0 mg/kg/injection, schedule: Q04DX003 (ip), vehicle: saline with Tween-80

Measured: T/C

Nc1nc(=S)n(C2OCC(O)C(O)C2O)c2ccccc12 (stereo not given)
inactive: endpoint: mean survival time, dose: 12.5 mg/kg/injection, schedule: Q01DX005 (ip), vehicle: distilled water + Tween-80 97 % of control | endpoint: mean survival time, dose: 25.0 mg/kg/injection, schedule: Q01DX005 (ip), vehicle: distilled water + Tween-80 96 % of control | endpoint: mean survival time, dose: 50.0 mg/kg/injection, schedule: Q01DX005 (ip), vehicle: distilled water + Tween-80 96 % of control | endpoint: mean survival time, dose: 100.0 mg/kg/injection, schedule: Q01DX005 (ip), vehicle: distilled water + Tween-80 96 % of control | endpoint: mean survival time, dose: 200.0 mg/kg/injection, schedule: Q01DX005 (ip), vehicle: distilled water + Tween-80 91 % of control

[CH3][Sn]1([CH3])[O]C2C(CO)OC(n3cnc4c(N)ncnc43)C2[O]1 (stereo not given)
inactive: [1] 98 % of control | [2] 92 % of control | [3] 97 % of control

Oc1ccccc1/C=N/c1nc(-c2ccccc2)cs1
inactive: [4] 86 % of control | [5] 107 % of control | [6] 93 % of control

O=c1c2ccccc2sc2ccc3ccccc3c12
inactive: [4] 106 % of control | [5] 101 % of control | [6] 101 % of control

N#CCCN(N=O)C(=O)Nc1ccccc1
inactive: endpoint: mean survival time, dose: 6.25 mg/kg/injection, schedule: Q01DX Z (ip), vehicle: carboxymethylcellulose (CMC) 110 % of control | endpoint: mean survival time, dose: 12.5 mg/kg/injection, schedule: Q01DX Z (ip), vehicle: carboxymethylcellulose (CMC) 115 % of control | endpoint: mean survival time, dose: 75.0 mg/kg/injection, schedule: Q01DX Z (ip), vehicle: carboxymethylcellulose (CMC) 102 % of control

CN(N=O)C(=O)N[C@@H](C=O)[C@@H](O)[C@H](O)[C@H](O)CO
inactive: [1] 104 % of control | endpoint: mean survival time, dose: 19.6 mg/kg/injection, schedule: Q01DX009 (ip), vehicle: other 104 % of control | endpoint: mean survival time, dose: 25.0 mg/kg/injection, schedule: Q01DX001 (ip), vehicle: other 102 % of control and 103 % of control | [2] 112 % of control | endpoint: mean survival time, dose: 25.0 mg/kg/injection, schedule: Q04DX003 (ip), vehicle: other 102 % of control | endpoint: mean survival time, dose: 29.3 mg/kg/injection, schedule: Q01DX009 (ip), vehicle: other 107 % of control | endpoint: mean survival time, dose: 32.0 mg/kg/injection, schedule: Q03HX008 (ip), vehicle: other 98 % of control | endpoint: mean survival time, dose: 32.0 mg/kg/injection, schedule: Q03HX016 (ip), vehicle: other 98 % of control | endpoint: mean survival time, dose: 37.5 mg/kg/injection, schedule: Q01DX001 (ip), vehicle: other 107 % of control | endpoint: mean survival time, dose: 44.0 mg/kg/injection, schedule: Q01DX009 (ip), vehicle: other 117 % of control | endpoint: mean survival time, dose: 50.0 mg/kg/injection, schedule: Q01DX001 (ip), vehicle: other 94 % of control and 105 % of control | [3] 117 % of control | endpoint: mean survival time, dose: 50.0 mg/kg/injection, schedule: Q04DX003 (ip), vehicle: other 106 % of control | endpoint: mean survival time, dose: 64.0 mg/kg/injection, schedule: Q03HX008 (ip), vehicle: other 96 % of control | endpoint: mean survival time, dose: 64.0 mg/kg/injection, schedule: Q03HX016 (ip), vehicle: other 95 % of control | endpoint: mean survival time, dose: 75.0 mg/kg/injection, schedule: Q01DX001 (ip), vehicle: other 98 % of control | endpoint: mean survival time, dose: 100.0 mg/kg/injection, schedule: Q01DX001 (ip), vehicle: other 113 % of control and 103 % of control | endpoint: mean survival time, dose: 100.0 mg/kg/injection, schedule: Q01DX005 (ip), vehicle: other 116 % of control | endpoint: mean survival time, dose: 100.0 mg/kg/injection, schedule: Q01DX009 (ip), vehicle: saline 111 % of control | endpoint: mean survival time, dose: 100.0 mg/kg/injection, schedule: Q04DX003 (ip), vehicle: other 109 % of control | endpoint: mean survival time, dose: 128.0 mg/kg/injection, schedule: Q03HX008 (ip), vehicle: other 102 % of control | endpoint: mean survival time, dose: 128.0 mg/kg/injection, schedule: Q03HX016 (ip), vehicle: other 108 % of control | endpoint: mean survival time, dose: 150.0 mg/kg/injection, schedule: Q01DX001 (ip), vehicle: other 104 % of control | endpoint: mean survival time, dose: 200.0 mg/kg/injection, schedule: Q01DX001 (ip), vehicle: other 118 % of control and 124 % of control and 106 % of control | endpoint: mean survival time, dose: 200.0 mg/kg/injection, schedule: Q01DX009 (ip), vehicle: saline 103 % of control | endpoint: mean survival time, dose: 200.0 mg/kg/injection, schedule: Q04DX003 (ip), vehicle: other 120 % of control | endpoint: mean survival time, dose: 250.0 mg/kg/injection, schedule: Q01DX001 (ip), vehicle: other 109 % of control | endpoint: mean survival time, dose: 256.0 mg/kg/injection, schedule: Q03HX008 (ip), vehicle: other 108 % of control | endpoint: mean survival time, dose: 256.0 mg/kg/injection, schedule: Q03HX016 (ip), vehicle: other 113 % of control | endpoint: mean survival time, dose: 300.0 mg/kg/injection, schedule: Q01DX001 (ip), vehicle: other 119 % of control and 110 % of control | endpoint: mean survival time, dose: 350.0 mg/kg/injection, schedule: Q01DX001 (ip), vehicle: other 113 % of control | endpoint: mean survival time, dose: 400.0 mg/kg/injection, schedule: Q01DX001 (ip), vehicle: other 117 % of control and 102 % of control | endpoint: median survival time, dose: 21.6 mg/kg/injection, schedule: Q01DX009 (ip), vehicle: saline 100 % of control | endpoint: median survival time, dose: 36.0 mg/kg/injection, schedule: Q01DX009 (ip), vehicle: saline 102 % of control | endpoint: median survival time, dose: 60.0 mg/kg/injection, schedule: Q01DX009 (ip), vehicle: saline 109 % of control | endpoint: median survival time, dose: 100.0 mg/kg/injection, schedule: Q01DX009 (ip), vehicle: saline 110 % of control

CN(C)C(=O)Nc1cccc(OP(=O)(N(C)C)N(C)C)c1
inactive: [7] 103 % of control | endpoint: mean survival time, dose: 200.0 mg/kg/injection, schedule: Q04DX003 (ip), vehicle: saline with Tween-80 97 % of control | [8] 99 % of control

[I][Pt+2][I].[NH-]c1ccccc1F.[NH-]c1ccccc1F
inactive: endpoint: mean survival time, dose: 3.13 mg/kg/injection, schedule: Q04DX003 (ip), vehicle: distilled water + Tween-80 98 % of control | endpoint: mean survival time, dose: 6.25 mg/kg/injection, schedule: Q04DX003 (ip), vehicle: distilled water + Tween-80 101 % of control | endpoint: mean survival time, dose: 12.5 mg/kg/injection, schedule: Q04DX003 (ip), vehicle: distilled water + Tween-80 98 % of control | endpoint: mean survival time, dose: 25.0 mg/kg/injection, schedule: Q04DX003 (ip), vehicle: distilled water + Tween-80 101 % of control | endpoint: mean survival time, dose: 50.0 mg/kg/injection, schedule: Q04DX003 (ip), vehicle: distilled water + Tween-80 102 % of control | endpoint: mean survival time, dose: 100.0 mg/kg/injection, schedule: Q04DX003 (ip), vehicle: distilled water + Tween-80 98 % of control | endpoint: mean survival time, dose: 200.0 mg/kg/injection, schedule: Q04DX003 (ip), vehicle: distilled water + Tween-80 101 % of control

CCCCN=C=C(c1ccccc1)c1ccccc1
inactive: endpoint: mean survival time, dose: 25.0 mg/kg/injection, schedule: Q04DX002 (ip), vehicle: other 97 % of control | endpoint: mean survival time, dose: 50.0 mg/kg/injection, schedule: Q04DX002 (ip), vehicle: other 86 % of control | endpoint: mean survival time, dose: 100.0 mg/kg/injection, schedule: Q04DX002 (ip), vehicle: other 89 % of control

O=C(NCC1CCCC1)c1ccccc1
inactive: endpoint: mean survival time, dose: 100.0 mg/kg/injection, schedule: Q01DX001 (ip), vehicle: saline 95 % of control | endpoint: mean survival time, dose: 200.0 mg/kg/injection, schedule: Q01DX001 (ip), vehicle: saline 97 % of control | endpoint: mean survival time, dose: 400.0 mg/kg/injection, schedule: Q01DX001 (ip), vehicle: saline 89 % of control

CCOC(=O)c1cc(C=O)nc2c(Cl)cc(Cl)cc12
inactive: [7] 96 % of control | [8] 98 % of control

NC(=O)C[P+](c1ccccc1)(c1ccccc1)c1ccccc1
inactive: endpoint: mean survival time, dose: 25.0 mg/kg/injection, schedule: Q04DX003 (ip), vehicle: saline with Tween-80 109 % of control | endpoint: mean survival time, dose: 50.0 mg/kg/injection, schedule: Q04DX003 (ip), vehicle: saline with Tween-80 114 % of control | [7] 102 % of control and 105 % of control

O=C(NO)c1ccc(O)cc1
inactive: endpoint: mean survival time, dose: 267.0 mg/kg/injection, schedule: Q01DX009 (ip), vehicle: saline 120 % of control
